{"source": "ChEMBL document CHEMBL3091421", "about": "“Discovery of benzo[d]imidazo[5,1-b]thiazole as a new class of phosphodiesterase 10A inhibitors” (Bioorg Med Chem Lett, 2013)", "key": {"Mus musculus": {"test_system": "Mus musculus", "test": "Antipsychotic activity in ip dosed CD-1 mouse assessed as reduction in apomorphine-induced climbing behavior administered 15 mins prior to apomorphine-challenge measured immediately relative to vehicle-treated control", "assay_type": "functional", "settings": "CD-1, ip"}, "[1]": {"test": "Metabolic stability in human liver microsomes assessed as compound remaining after 60 mins", "assay_type": "ADME", "settings": "read-out: Stability"}, "Homo sapiens [2]": {"species_on_record": "Homo sapiens", "test": "Selectivity ratio of IC50 for PDE11A (unknown origin) to IC50 for human recombinant PDE10A"}, "Homo sapiens [3]": {"species_on_record": "Homo sapiens", "test": "Selectivity ratio of IC50 for PDE2A (unknown origin) to IC50 for human recombinant PDE10A"}, "[4]": {"molecular_target": "Dual specificity calcium/calmodulin-dependent 3',5'-cyclic nucleotide phosphodiesterase 1A (Homo sapiens) (UniProt P54750)", "sequence (P54750 whole entry)": "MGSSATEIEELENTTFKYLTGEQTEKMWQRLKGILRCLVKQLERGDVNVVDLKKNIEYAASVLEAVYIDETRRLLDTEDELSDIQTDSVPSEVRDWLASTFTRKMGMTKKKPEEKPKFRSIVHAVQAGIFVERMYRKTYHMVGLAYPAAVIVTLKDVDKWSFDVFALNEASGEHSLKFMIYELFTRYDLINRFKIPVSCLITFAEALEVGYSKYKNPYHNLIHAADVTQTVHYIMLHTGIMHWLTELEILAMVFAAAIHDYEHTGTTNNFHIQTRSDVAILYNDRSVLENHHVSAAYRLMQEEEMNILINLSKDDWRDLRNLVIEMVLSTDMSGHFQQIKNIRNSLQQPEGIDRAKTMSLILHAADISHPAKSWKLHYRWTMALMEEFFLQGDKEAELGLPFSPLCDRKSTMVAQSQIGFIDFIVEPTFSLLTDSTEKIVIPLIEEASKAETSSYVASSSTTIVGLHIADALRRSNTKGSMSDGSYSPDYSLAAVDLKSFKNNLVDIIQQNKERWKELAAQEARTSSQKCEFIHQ", "test": "Inhibition of PDE1A (unknown origin) at 10 uM"}, "Rattus norvegicus [5]": {"test_system": "Rattus norvegicus", "test": "Antipsychotic activity in Sprague-Dawley rat psychosis model assessed as inhibition of MK-801-induced locomotion at 6 mg/kg, ip administered 5 mins prior to MK-801-challenge measured after 15 mins up to 1 hr relative to vehicle-treated control", "assay_type": "functional", "settings": "route intraperitoneal"}, "Rattus norvegicus [6]": {"test_system": "Rattus norvegicus", "test": "Antipsychotic activity in Sprague-Dawley rat conditioned avoidance response model assessed as reduction in avoidance at 3 mg/kg, ip after 15 mins relative to vehicle-treated control", "assay_type": "functional", "parameters": "scale not given: the % may be the effect or the level left", "settings": "route intraperitoneal"}, "Rattus norvegicus [7]": {"test_system": "Rattus norvegicus", "test": "Antipsychotic activity in Sprague-Dawley rat assessed as reduction in quipazine-induced head-twitches at 1 mg/kg, ip administered 15 mins prior to quipazine-challenge measured immediately relative to vehicle-treated control", "assay_type": "functional", "parameters": "scale not given: the % may be the effect or the level left", "settings": "route intraperitoneal"}, "Rattus norvegicus [8]": {"test_system": "Rattus norvegicus", "test": "Antipsychotic activity in Sprague-Dawley rat psychosis model assessed as inhibition of MK-801-induced hyperlocomotion at 10 mg/kg, ip administered 5 mins prior to MK-801-challenge measured after 15 mins up to 1 hr", "assay_type": "functional", "settings": "route intraperitoneal"}, "Rattus norvegicus [9]": {"test_system": "Rattus norvegicus", "test": "Antipsychotic activity in Sprague-Dawley rat psychosis model assessed as inhibition of MK-801-induced ataxia at 1 mg/kg, ip administered 5 mins prior to MK-801-challenge measured after 15 mins up to 1 hr relative to vehicle-treated control", "assay_type": "functional", "settings": "route intraperitoneal"}, "[10]": {"test": "Half life in Sprague-Dawley rat at 10 mg/kg, po by LC-MS/MS analysis", "assay_type": "ADME, organism-based", "parameters": "dose 10 mg/kg, route oral", "settings": "in vivo"}, "[11]": {"molecular_target": "High affinity 3',5'-cyclic-AMP phosphodiesterase 7A (Homo sapiens) (UniProt Q13946)", "sequence (Q13946 whole entry)": "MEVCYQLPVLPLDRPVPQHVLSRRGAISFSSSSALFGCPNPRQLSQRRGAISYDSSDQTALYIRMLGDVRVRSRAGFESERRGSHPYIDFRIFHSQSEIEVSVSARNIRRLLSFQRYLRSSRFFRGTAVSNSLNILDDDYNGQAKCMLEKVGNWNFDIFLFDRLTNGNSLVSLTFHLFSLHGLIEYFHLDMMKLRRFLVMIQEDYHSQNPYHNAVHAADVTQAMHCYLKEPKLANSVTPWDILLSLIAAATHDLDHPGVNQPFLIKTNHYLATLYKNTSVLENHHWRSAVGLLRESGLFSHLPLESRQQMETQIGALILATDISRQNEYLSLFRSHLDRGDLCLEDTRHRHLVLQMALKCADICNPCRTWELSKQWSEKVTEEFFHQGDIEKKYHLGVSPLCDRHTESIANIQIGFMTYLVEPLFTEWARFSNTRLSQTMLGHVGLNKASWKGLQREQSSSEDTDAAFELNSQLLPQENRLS", "test": "Inhibition of PDE7A1 (unknown origin) using [3H]-cAMP as substrate at 10 uM after 30 mins by radiometric assay"}, "[12]": {"molecular_target": "Dual 3',5'-cyclic-AMP and -GMP phosphodiesterase 11A (Homo sapiens) (UniProt Q9HCR9)", "sequence (Q9HCR9 whole entry, looked up)": "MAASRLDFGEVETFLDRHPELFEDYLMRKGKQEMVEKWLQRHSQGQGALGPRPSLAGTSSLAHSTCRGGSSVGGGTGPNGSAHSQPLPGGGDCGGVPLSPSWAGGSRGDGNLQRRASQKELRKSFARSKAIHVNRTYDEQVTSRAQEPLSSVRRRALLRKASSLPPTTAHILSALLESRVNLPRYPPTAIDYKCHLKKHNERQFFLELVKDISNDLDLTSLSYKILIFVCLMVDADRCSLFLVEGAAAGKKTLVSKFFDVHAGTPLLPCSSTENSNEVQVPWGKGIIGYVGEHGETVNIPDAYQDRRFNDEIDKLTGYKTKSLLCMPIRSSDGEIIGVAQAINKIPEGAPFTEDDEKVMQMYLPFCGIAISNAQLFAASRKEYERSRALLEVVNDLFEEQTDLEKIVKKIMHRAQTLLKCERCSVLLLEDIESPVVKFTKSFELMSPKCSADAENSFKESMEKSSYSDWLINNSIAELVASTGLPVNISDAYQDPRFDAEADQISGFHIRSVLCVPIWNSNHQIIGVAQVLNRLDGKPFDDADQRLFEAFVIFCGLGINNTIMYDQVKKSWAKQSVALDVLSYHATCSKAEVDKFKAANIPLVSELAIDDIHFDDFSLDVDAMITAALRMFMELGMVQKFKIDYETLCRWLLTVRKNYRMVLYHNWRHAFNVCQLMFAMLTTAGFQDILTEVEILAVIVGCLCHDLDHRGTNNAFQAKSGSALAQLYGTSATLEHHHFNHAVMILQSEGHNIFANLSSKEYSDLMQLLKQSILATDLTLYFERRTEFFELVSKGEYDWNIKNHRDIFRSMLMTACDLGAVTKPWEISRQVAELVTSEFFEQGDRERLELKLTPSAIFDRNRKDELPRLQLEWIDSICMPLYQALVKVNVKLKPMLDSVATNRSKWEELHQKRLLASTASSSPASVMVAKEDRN", "test": "Inhibition of PDE11A (unknown origin) using [3H]-cAMP as substrate at 10 uM after 30 mins by radiometric assay"}, "Rattus norvegicus [13]": {"test_system": "Rattus norvegicus", "test": "Antipsychotic activity in Sprague-Dawley rat assessed as reduction in quipazine-induced head-twitches at 6 mg/kg, ip administered 15 mins prior to quipazine-challenge measured immediately relative to vehicle-treated control", "assay_type": "functional", "parameters": "scale not given: the % may be the effect or the level left", "settings": "route intraperitoneal"}, "[14]": {"test": "Ratio of drug level in brain to plasma in Sprague-Dawley rat at 10 mg/kg, po after 30 mins", "assay_type": "ADME, organism-based", "parameters": "dose 10 mg/kg, route oral", "settings": "brain and plasma, read-out: BPR"}, "Rattus norvegicus [15]": {"test_system": "Rattus norvegicus", "test": "Antipsychotic activity in Sprague-Dawley rat psychosis model assessed as inhibition of MK-801-induced locomotion at 3 mg/kg, ip administered 5 mins prior to MK-801-challenge measured after 15 mins up to 1 hr relative to vehicle-treated control", "assay_type": "functional", "settings": "route intraperitoneal"}, "[16]": {"molecular_target": "cGMP-dependent 3',5'-cyclic phosphodiesterase (Homo sapiens) (UniProt O00408)", "sequence (O00408 whole entry)": "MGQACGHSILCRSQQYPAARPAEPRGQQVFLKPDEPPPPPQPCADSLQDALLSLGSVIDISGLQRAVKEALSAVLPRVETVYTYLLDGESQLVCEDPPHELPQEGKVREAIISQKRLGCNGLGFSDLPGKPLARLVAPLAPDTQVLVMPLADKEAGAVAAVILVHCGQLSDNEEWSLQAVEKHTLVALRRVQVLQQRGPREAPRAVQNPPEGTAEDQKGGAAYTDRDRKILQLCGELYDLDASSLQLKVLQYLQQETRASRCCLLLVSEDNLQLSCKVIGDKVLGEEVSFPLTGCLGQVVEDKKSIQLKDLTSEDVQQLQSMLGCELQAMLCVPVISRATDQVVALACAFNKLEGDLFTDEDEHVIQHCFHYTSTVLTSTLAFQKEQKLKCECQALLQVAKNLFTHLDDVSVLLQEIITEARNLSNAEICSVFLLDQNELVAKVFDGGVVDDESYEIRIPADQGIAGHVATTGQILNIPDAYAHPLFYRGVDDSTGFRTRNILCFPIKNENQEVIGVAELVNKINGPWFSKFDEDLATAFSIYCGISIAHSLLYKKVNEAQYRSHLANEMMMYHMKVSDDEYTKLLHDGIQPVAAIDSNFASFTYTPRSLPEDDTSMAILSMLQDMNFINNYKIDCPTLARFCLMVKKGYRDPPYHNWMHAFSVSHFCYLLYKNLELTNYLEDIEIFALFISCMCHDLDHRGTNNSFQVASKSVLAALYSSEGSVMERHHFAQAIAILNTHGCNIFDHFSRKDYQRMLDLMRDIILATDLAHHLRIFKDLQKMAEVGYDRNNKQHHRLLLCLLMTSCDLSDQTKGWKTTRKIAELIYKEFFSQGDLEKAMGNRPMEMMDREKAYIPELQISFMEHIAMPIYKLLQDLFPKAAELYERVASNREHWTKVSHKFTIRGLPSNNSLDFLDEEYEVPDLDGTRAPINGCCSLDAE", "test": "Inhibition of PDE2A (unknown origin) using cAMP as substrate at 10 uM after 30 mins by HTRF method"}, "Homo sapiens [17]": {"species_on_record": "Homo sapiens", "test": "Selectivity ratio of IC50 for PDE5A (unknown origin) to IC50 for human recombinant PDE10A"}, "Homo sapiens [18]": {"species_on_record": "Homo sapiens", "test": "Selectivity ratio of IC50 for PDE8A (unknown origin) to IC50 for human recombinant PDE10A"}, "Homo sapiens [19]": {"species_on_record": "Homo sapiens", "test": "Selectivity ratio of IC50 for PDE9A2 (unknown origin) to IC50 for human recombinant PDE10A"}, "[20]": {"test": "Cmax in Sprague-Dawley rat at 10 mg/kg, po by LC-MS/MS analysis", "assay_type": "ADME, organism-based", "parameters": "dose 10 mg/kg, route oral", "settings": "in vivo"}, "Rattus norvegicus [21]": {"test_system": "Rattus norvegicus", "test": "Antipsychotic activity in Sprague-Dawley rat psychosis model assessed as inhibition of MK-801-induced locomotion at 1 mg/kg, ip administered 5 mins prior to MK-801-challenge measured after 15 mins up to 1 hr relative to vehicle-treated control", "assay_type": "functional", "settings": "route intraperitoneal"}, "[22]": {"molecular_target": "3',5'-cyclic-AMP phosphodiesterase 4D (Homo sapiens) (UniProt Q08499)", "sequence (Q08499 whole entry)": "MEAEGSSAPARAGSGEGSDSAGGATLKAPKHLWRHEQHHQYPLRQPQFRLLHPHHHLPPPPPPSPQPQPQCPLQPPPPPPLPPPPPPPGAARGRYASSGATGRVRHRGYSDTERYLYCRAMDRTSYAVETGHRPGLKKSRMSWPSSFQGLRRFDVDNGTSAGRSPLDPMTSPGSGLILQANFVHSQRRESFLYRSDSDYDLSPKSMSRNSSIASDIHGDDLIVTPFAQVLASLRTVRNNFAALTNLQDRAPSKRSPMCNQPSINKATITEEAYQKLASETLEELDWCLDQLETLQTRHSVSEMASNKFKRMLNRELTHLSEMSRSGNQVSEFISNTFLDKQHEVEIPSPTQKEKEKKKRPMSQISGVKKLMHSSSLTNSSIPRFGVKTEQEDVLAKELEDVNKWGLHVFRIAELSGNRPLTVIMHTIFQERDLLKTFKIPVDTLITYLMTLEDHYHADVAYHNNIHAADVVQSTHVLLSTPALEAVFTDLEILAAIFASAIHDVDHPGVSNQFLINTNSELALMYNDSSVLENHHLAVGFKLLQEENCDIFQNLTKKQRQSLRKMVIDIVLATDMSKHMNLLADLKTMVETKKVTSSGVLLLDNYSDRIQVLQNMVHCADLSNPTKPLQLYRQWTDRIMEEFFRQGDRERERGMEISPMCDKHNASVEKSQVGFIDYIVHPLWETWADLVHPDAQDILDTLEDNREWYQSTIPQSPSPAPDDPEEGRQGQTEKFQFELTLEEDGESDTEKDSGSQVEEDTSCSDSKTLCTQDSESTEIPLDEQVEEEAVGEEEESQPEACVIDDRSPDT", "test": "Inhibition of PDE4D (unknown origin) using cAMP as substrate at 10 uM after 30 mins"}, "Rattus norvegicus [23]": {"test_system": "Rattus norvegicus", "test": "Antipsychotic activity in Sprague-Dawley rat psychosis model assessed as inhibition of MK-801-induced stereotypy at 10 mg/kg, ip administered 5 mins prior to MK-801-challenge measured after 15 mins up to 1 hr relative to vehicle-treated control", "assay_type": "functional", "settings": "route intraperitoneal"}, "Rattus norvegicus [24]": {"test_system": "Rattus norvegicus", "test": "Antipsychotic activity in Sprague-Dawley rat assessed as reduction in quipazine-induced head-twitches at 0.3 mg/kg, ip administered 15 mins prior to quipazine-challenge measured immediately relative to vehicle-treated control", "assay_type": "functional", "parameters": "scale not given: the % may be the effect or the level left", "settings": "route intraperitoneal"}, "Rattus norvegicus [25]": {"test_system": "Rattus norvegicus", "test": "Antipsychotic activity in ip dosed Sprague-Dawley rat psychosis model assessed as inhibition of MK-801-induced stereotypy administered 5 mins prior to MK-801-challenge measured after 15 mins up to 1 hr relative to vehicle-treated control", "assay_type": "functional, organism-based"}, "[26]": {"molecular_target": "cGMP-specific 3',5'-cyclic phosphodiesterase (Homo sapiens) (UniProt O76074)", "test": "Inhibition of PDE5A (unknown origin) using [3H]-cGMP as substrate at 10 uM after 30 mins by radiometric assay"}, "Homo sapiens [27]": {"species_on_record": "Homo sapiens", "test": "Selectivity ratio of IC50 for PDE4D (unknown origin) to IC50 for human recombinant PDE10A"}, "[28]": {"molecular_target": "High affinity cAMP-specific and IBMX-insensitive 3',5'-cyclic phosphodiesterase 8A (Homo sapiens) (UniProt O60658)", "sequence (O60658 whole entry)": "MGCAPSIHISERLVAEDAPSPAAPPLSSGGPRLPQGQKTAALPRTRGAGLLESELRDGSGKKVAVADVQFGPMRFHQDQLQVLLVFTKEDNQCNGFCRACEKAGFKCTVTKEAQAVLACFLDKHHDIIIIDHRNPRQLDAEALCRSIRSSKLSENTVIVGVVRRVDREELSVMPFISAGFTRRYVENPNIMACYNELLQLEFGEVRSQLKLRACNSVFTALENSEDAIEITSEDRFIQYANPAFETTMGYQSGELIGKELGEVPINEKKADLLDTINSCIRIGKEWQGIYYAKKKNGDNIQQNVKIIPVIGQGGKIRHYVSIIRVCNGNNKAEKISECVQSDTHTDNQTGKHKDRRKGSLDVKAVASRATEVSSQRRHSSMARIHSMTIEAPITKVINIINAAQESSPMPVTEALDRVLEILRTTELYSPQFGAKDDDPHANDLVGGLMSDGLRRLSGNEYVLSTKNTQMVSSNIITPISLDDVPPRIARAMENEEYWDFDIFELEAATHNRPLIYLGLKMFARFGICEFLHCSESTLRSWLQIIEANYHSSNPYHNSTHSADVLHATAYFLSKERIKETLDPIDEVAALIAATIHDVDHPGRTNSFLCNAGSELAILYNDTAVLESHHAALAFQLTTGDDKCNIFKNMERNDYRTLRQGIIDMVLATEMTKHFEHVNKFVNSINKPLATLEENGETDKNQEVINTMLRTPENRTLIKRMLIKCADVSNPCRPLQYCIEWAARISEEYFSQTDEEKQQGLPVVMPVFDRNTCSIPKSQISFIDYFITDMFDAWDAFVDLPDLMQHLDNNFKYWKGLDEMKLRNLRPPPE", "test": "Inhibition of PDE8A (unknown origin) using [3H]-cAMP as substrate at 10 uM after 30 mins by radiometric assay"}, "Rattus norvegicus [29]": {"test_system": "Rattus norvegicus", "test": "Antipsychotic activity in ip dosed Sprague-Dawley rat psychosis model assessed as inhibition of MK-801-induced locomotion administered 5 mins prior to MK-801-challenge measured after 15 mins up to 1 hr relative to vehicle-treated control", "assay_type": "functional"}, "Rattus norvegicus [30]": {"test_system": "Rattus norvegicus", "test": "Antipsychotic activity in Sprague-Dawley rat conditioned avoidance response model assessed as reduction in avoidance at 6 mg/kg, ip after 15 mins relative to vehicle-treated control", "assay_type": "functional", "parameters": "scale not given: the % may be the effect or the level left", "settings": "route intraperitoneal"}, "Rattus norvegicus [31]": {"test_system": "Rattus norvegicus", "test": "Antipsychotic activity in Sprague-Dawley rat psychosis model assessed as inhibition of MK-801-induced ataxia at 3 mg/kg, ip administered 5 mins prior to MK-801-challenge measured after 15 mins up to 1 hr relative to vehicle-treated control", "assay_type": "functional", "settings": "route intraperitoneal"}, "Homo sapiens [32]": {"species_on_record": "Homo sapiens", "test": "Selectivity ratio of IC50 for PDE7A1 (unknown origin) to IC50 for human recombinant PDE10A"}, "Rattus norvegicus [33]": {"test_system": "Rattus norvegicus", "test": "Antipsychotic activity in ip dosed Sprague-Dawley rat conditioned avoidance response model assessed as reduction in avoidance after 15 mins relative to vehicle-treated control", "assay_type": "functional"}, "[34]": {"test": "Drug uptake in Sprague-Dawley rat brain at 10 mg/kg, po after 30 mins", "assay_type": "ADME, organism-based", "parameters": "dose 10 mg/kg, route oral", "settings": "read-out: Drug uptake"}}}
{"smiles": "Cc1nc(C2CCOCC2)n2c1sc1cc(OCc3ccc4ccccc4n3)ccc12", "values": [{"measurement": "ED50", "setting": "Mus musculus", "value": 2.68, "unit": "mg/kg"}, {"measurement": "remaining at 1 h", "setting": "[1]", "value": 57, "unit": "%"}, {"measurement": "Ratio IC50", "setting": "Homo sapiens [2]", "value": "> 500"}, {"measurement": "Ratio IC50", "setting": "Homo sapiens [3]", "value": "> 500"}, {"measurement": "inhibition", "setting": "[4]", "value": 62.4, "unit": "%"}, {"measurement": "inhibition in vivo at 6 mg/kg", "setting": "Rattus norvegicus [5]", "value": 76, "unit": "%"}, {"measurement": "Activity", "setting": "Rattus norvegicus [6]", "value": 67, "unit": "%"}, {"measurement": "Activity", "setting": "Rattus norvegicus [7]", "value": 47, "unit": "%"}, {"measurement": "inhibition in vivo at 10 mg/kg", "setting": "Rattus norvegicus [8]", "value": 92, "unit": "%"}, {"measurement": "inhibition in vivo at 1 mg/kg", "setting": "Rattus norvegicus [9]", "value": 10, "unit": "%"}, {"measurement": "half-life", "setting": "[10]", "value": 2.1, "unit": "h"}, {"measurement": "inhibition", "setting": "[11]", "value": 44, "unit": "%"}, {"measurement": "inhibition", "setting": "[12]", "value": 19.2, "unit": "%"}, {"measurement": "Activity", "setting": "Rattus norvegicus [13]", "value": 76, "unit": "%"}, {"measurement": "Kp at 0.5 h", "setting": "[14]", "value": 1.82}, {"measurement": "inhibition in vivo at 3 mg/kg", "setting": "Rattus norvegicus [15]", "value": 58, "unit": "%"}, {"measurement": "inhibition", "setting": "[16]", "value": 60.8, "unit": "%"}, {"measurement": "Ratio IC50", "setting": "Homo sapiens [17]", "value": "> 500"}, {"measurement": "Ratio IC50", "setting": "Homo sapiens [18]", "value": "> 500"}, {"measurement": "Ratio IC50", "setting": "Homo sapiens [19]", "value": "> 500"}, {"measurement": "Cmax", "setting": "[20]", "value": 720, "unit": "ng/mL"}, {"measurement": "inhibition in vivo at 1 mg/kg", "setting": "Rattus norvegicus [21]", "value": 41, "unit": "%"}, {"measurement": "inhibition", "setting": "[22]", "value": 0, "unit": "%"}, {"measurement": "inhibition in vivo at 10 mg/kg", "setting": "Rattus norvegicus [23]", "value": 66, "unit": "%"}, {"measurement": "Activity", "setting": "Rattus norvegicus [24]", "value": 25, "unit": "%"}, {"measurement": "inhibition", "setting": "Rattus norvegicus [25]", "value": "Dose-dependent effect"}, {"measurement": "inhibition", "setting": "[26]", "value": 45.5, "unit": "%"}, {"measurement": "Ratio IC50", "setting": "Homo sapiens [27]", "value": "> 500"}, {"measurement": "inhibition", "setting": "[28]", "value": 18.5, "unit": "%"}, {"measurement": "ED50", "setting": "Rattus norvegicus [29]", "value": 1.44, "unit": "mg/kg"}, {"measurement": "inhibition", "setting": "Rattus norvegicus [29]", "value": "Dose-dependent effect"}, {"measurement": "Activity", "setting": "Rattus norvegicus [30]", "value": 94, "unit": "%"}, {"measurement": "inhibition in vivo at 3 mg/kg", "setting": "Rattus norvegicus [31]", "value": 56, "unit": "%"}, {"measurement": "Ratio IC50", "setting": "Homo sapiens [32]", "value": "> 500"}, {"measurement": "Activity", "setting": "Rattus norvegicus [33]", "value": "Dose-dependent effect"}, {"measurement": "ED50", "setting": "Rattus norvegicus [33]; 0.25 h", "value": 1.6, "unit": "mg/kg"}, {"measurement": "concentration at 0.5 h", "setting": "[34]", "value": 672, "unit": "ng/g"}]}
